pEC50, pIC50: −log10 of the molar value.
What was measured:
[1] = system: IL-1β; assay: PBMC assay: LPS-stimulated IL-1β release; type: cell-based; settings: human PBMCs, 30 min compound pre-incubation, 100 ng/ml LPS for 6 hrs, supernatant, MSD
Protocol: (§1) Peripheral venous blood was collected from healthy individuals and human peripheral blood mononuclear cells (PBMCs) were isolated from blood by Ficoll-Histopaque (Sigma-Aldrich, A0561) density gradient centrifugation. After isolation, PBMCs were stored in liquid nitrogen for later use. Upon thawing, PBMC cell viability was determined in growth medium (RPMI media supplemented with 10% fetal bovine serum, 1% Pen-Strep and 1% L-glutamine). Compounds were spotted in a 1:3 serial dilution in DMSO and diluted to the final concentration in 30 µl medium in 96 well plates (Falcon, 353072). PBMCs were added at a density of 7.5 × 10^4 cells per well and incubated for 30 min in a 5% CO2 incubator at 37° C. LPS stimulation was performed by addition of 100 ng/ml LPS (final concentration, Invivogen, tlrl-smlps) for 6 hrs followed by collection of cellular supernatant and the analysis of IL-1β […] and TNF cytokines levels (µM) via MSD technology according to manufacturers’ guidelines (MSD, K151A0H).
(§2) The IC50 values (for IL-1β) and EC50 values (TNF) were obtained on compounds of the invention/examples, and are depicted in the following table: […]

[2] = system: TNF; assay: PBMC assay: LPS-stimulated TNF cytokine levels; type: cell-based; settings: human PBMCs, 30 min compound pre-incubation, 100 ng/ml LPS for 6 hrs, supernatant, MSD
Protocol: as §1, §2

Structure (SMILES) | pIC50 [1] | pEC50 [2] | pIC50 ([1]; Homo sapiens, PBMC) | pEC50 ([2]; Homo sapiens, PBMC)
CC(C)c1nn(CC(=O)Nc2ccncc2F)c(=O)c2cc(Br)cn12 [Compound 2F] | 5.90 | < 5.00 |  | 
CC(C)c1nn(CC(=O)Nc2ccncn2)c(=O)c2cc(Cc3ccccc3)cn12 [Compound 75F] |  |  | < 5.00 | < 5.00
CC(C)c1nn(CC(=O)Nc2ccncn2)c(=O)c2cc(-c3cnn(C)c3)cn12 [Compound 89F, 2-(4-isopropyl-7-(1-methyl-1H-pyrazol-4-yl)-1-oxopyrrolo[1,2-d][1,2,4]triazin-2(1H)-yl)-N-(pyrimidin-4-yl)acetamide] |  |  | < 5.00 | < 5.00
CC(C)c1nn(CC(=O)Nc2ccncn2)c(=O)c2cc(C#N)cn12 [Compound 42F] |  |  | < 5.00 | < 5.00
CC(C)c1nn(CC(=O)Nc2ccncn2)c(=O)c2cc(C3CCNCC3)cn12 [Compound 84F, 2-(4-isopropyl-1-oxo-7-(piperidin-4-yl)pyrrolo[1,2-d][1,2,4]triazin-2(1H)-yl)-N-(pyrimidin-4-yl)acetamide] |  |  | < 5.00 | < 5.00
CC(C)c1nn(CC(=O)Nc2ccncn2)c(=O)c2cc(I)cn12 [Compound 5F, 2-(7-iodo-4-isopropyl-1-oxo-pyrrolo[1,2-d][1,2,4]triazin-2-yl)-N-pyrimidin-4-yl-acetamide] |  |  |  | < 5.00
CC(C)c1nn(CC(=O)Nc2ccncn2)c(=O)c2cc(C3CCOCC3)cn12 [Compound 79F] |  |  | < 5.00 | < 5.00
CC(C)c1nn(CC(=O)Nc2ccncn2)c(=O)c2cccn12 [Compound 11F] |  |  | < 5.00 | < 5.00
CC(C)c1nn(CC(=O)Nc2ccncc2F)c(=O)c2cc(F)cn12 [Compound 52F] |  |  | < 5.00 | < 5.00
CC(C)c1nn(CC(=O)Nc2ccncn2)c(=O)c2cc(CC3CCCOC3)cn12 (centres unmarked) [Compound 80F, 2-(4-isopropyl-1-oxo-7-((tetrahydro-2H-pyran-3-yl)methyl)pyrrolo[1,2-d][1,2,4]triazin-2(1H)-yl)-N-(pyrimidin-4-yl)acetamide] |  |  | < 5.00 | < 5.00
CC(C)c1nn(CC(=O)Nc2ccncn2)c(=O)c2cc(CN(C)C)cn12 [Compound 43F, 2-(7-((dimethylamino)methyl)-4-isopropyl-1-oxopyrrolo[1,2-d][1,2,4]triazin-2(1H)-yl)-N-(pyrimidin-4-yl)acetamide] |  |  | < 5.00 | < 5.00
CNCc1cc2c(=O)n(CC(=O)Nc3ccncn3)nc(C(C)C)n2c1 [Compound 44F] |  |  | < 5.00 | < 5.00
CC(C)c1cc2c(=O)n(CC(=O)Nc3ccncn3)nc(N3CCOCC3)n2c1 [Compound 25F] |  |  | < 5.00 | < 5.00
CC(C)c1nn(CC(=O)Nc2ccncn2)c(=O)c2cc(CC3CC(=O)N(C)C3)cn12 (centres unmarked) [Compound 81F] |  |  | < 5.00 | 
CNC(=O)c1cc2c(=O)n(CC(=O)Nc3ccncn3)nc(C(C)C)n2c1 [Compound 76F, 4-isopropyl-N-methyl-1-oxo-2-(2-oxo-2-(pyrimidin-4-ylamino)ethyl)-1,2-dihydropyrrolo[1,2-d][1,2,4]triazine-7-carboxamide] |  |  | < 5.00 | < 5.00
CC(C)c1nn(CC(=O)Nc2ccncn2)c(=O)c2cc(C3CNC3)cn12 [Compound 83F, 2-(7-(azetidin-3-yl)-4-isopropyl-1-oxopyrrolo[1,2-d][1,2,4]triazin-2(1H)-yl)-N-(pyrimidin-4-yl)acetamide] |  |  | < 5.00 | < 5.00
CC(C)c1nn(CC(=O)Nc2ccncn2)c(=O)c2cc(-c3c[nH]cn3)cn12 [Compound 94F, 2-(7-(1H-imidazol-4-yl)-4-isopropyl-1-oxopyrrolo[1,2-d][1,2,4]triazin-2(1H)-yl)-N-(pyrimidin-4-yl)acetamide] |  |  | < 5.00 | < 5.00
CC(C)c1cc2c(=O)n(CC(=O)Nc3ccncn3)nc(C3CNC3)n2c1 [Compound 45F] |  |  | < 5.00 | < 5.00
CC(C)c1nn(CC(=O)Nc2ccncn2)c(=O)c2cc(C(C)(C)O)cn12 [Compound 86F, 2-(7-(2-hydroxypropan-2-yl)-4-isopropyl-1-oxopyrrolo[1,2-d][1,2,4]triazin-2(1H)-yl)-N-(pyrimidin-4-yl)acetamide] |  |  | < 5.00 | < 5.00
CC(C)c1nn(CC(=O)Nc2ccncn2)c(=O)c2cc(-c3cn[nH]c3)cn12 [Compound 91F] |  |  | < 5.00 | < 5.00
CC(C)c1cc2c(=O)n(CC(=O)N[C@@H]3CCCN(C4CCC4)C3)nc(C(C)C)n2c1 [Compound 67F] |  |  |  | < 5.00

Other lines, results leading:

pIC50 [1] | pEC50 [2] | pIC50 ([1]; Homo sapiens, PBMC) | pEC50 ([2]; Homo sapiens, PBMC) | Structure (SMILES)
 |  | 5.44 | < 5.00 | CC(C)c1nn(CC(=O)Nc2ccncn2)c(=O)c2cc(Cl)cn12 [Compound 6F]
 |  | < 5.00 | < 5.00 | CC(C)c1nn(CC(=O)Nc2ccncn2)c(=O)c2cc(-c3cn(C)cn3)cn12 [Compound 93F, 2-(4-isopropyl-7-(1-methyl-1H-imidazol-4-yl)-1-oxopyrrolo[1,2-d][1,2,4]triazin-2(1H)-yl)-N-(pyrimidin-4-yl)acetamide]
 |  | 5.37 | < 5.00 | CC(C)c1cc2c(=O)n(CC(=O)Nc3ccncn3)nc(C(C)(C)O)n2c1 [Compound 37F, 2-[4-(1-hydroxy-1-methyl-ethyl)-7-isopropyl-1-oxo-pyrrolo[1,2-d][1,2,4]triazin-2-yl]-N-pyrimidin-4-yl-acetamide]
 |  | 5.29 | < 5.00 | COC(C)c1nn(CC(=O)Nc2ccncn2)c(=O)c2cc(C(C)C)cn12 (centres unmarked) [Compound 31F, 2-[7-isopropyl-4-(1-methoxyethyl)-1-oxo-pyrrolo[1,2-d][1,2,4]triazin-2-yl]-N-pyrimidin-4-yl-acetamide]
 |  | 5.44 | < 5.00 | CC(C)c1nn(CC(=O)Nc2ccncn2)c(=O)c2cc(CCC(F)(F)F)cn12 [Compound 33F, 2-[4-isopropyl-1-oxo-7-(3,3,3-trifluoropropyl)pyrrolo[1,2-d][1,2,4]triazin-2-yl]-N-pyrimidin-4-yl-acetamide]
 |  | 5.30 | < 5.00 | COc1nn(CC(=O)NC2CCOCC2)c(=O)c2cc(C(C)C)cn12 [Compound 66F]
 |  | 5.37 | < 5.00 | CC(C)c1nn(CC(=O)Nc2cccnc2)c(=O)c2cc(Br)cn12 [Compound 8F]
5.73 |  | 5.86 | < 5.00 | COc1nn(CC(=O)Nc2ccncn2)c(=O)c2cc(C(C)C)cn12 [Compound 53F]
 |  | 5.65 | < 5.00 | CC(C)c1cc2c(=O)n(CC(=O)N[C@H]3C[C@@](C)(O)C3)nc(C(C)OC3CC3)n2c1 (some centres unmarked) [Compound 62F]
 |  | 5.09 | < 5.00 | CCOC(C)c1nn(CC(=O)Nc2ccncn2)c(=O)c2cc(C(C)C)cn12 (centres unmarked) [Compound 40F]
 |  | 5.83 | < 5.00 | CCCCc1nn(CC(=O)N[C@H]2C[C@@](C)(O)C2)c(=O)c2cc(C(C)C)cn12 [Compound 60F]
 |  | 6.46 | < 5.00 | CC(C)c1cc2c(=O)n(CC(=O)Nc3ccncn3)nc(C(C)C)n2c1 [Compound 19F]
 |  | 5.11 | < 5.00 | COCc1cc2c(=O)n(CC(=O)Nc3ccncn3)nc(C(C)C)n2c1 [Compound 3F]
 |  | 6.23 | < 5.00 | CCc1nn(CC(=O)Nc2ccncn2)c(=O)c2cc(C3CC3)cn12 [Compound 20F]
 |  | 5.63 | < 5.00 | CC(C)c1nn(CC(=O)Nc2ccncn2)c(=O)c2cc(CCCF)cn12 [Compound 78F, 2-(7-(3-fluoropropyl)-4-isopropyl-1-oxopyrrolo[1,2-d][1,2,4]triazin-2(1H)-yl)-N-(pyrimidin-4-yl)acetamide]
 |  | 6.48 | < 5.00 | CC(C)c1cc2c(=O)n(CC(=O)Nc3ccncc3F)nc(C(C)C)n2c1 [Compound 18F]
 |  | 6.55 |  | CC(C)c1cc2c(=O)n(CC(=O)Nc3ccc4nncn4c3)nc(C(C)C)n2c1 [Compound 69F]
 |  | 5.60 | < 5.00 | CCCc1cc2c(=O)n(CC(=O)Nc3ccncn3)nc(OC)n2c1 [Compound 54F]
 |  | 5.82 | < 5.00 | CC(C)c1nn(CC(=O)Nc2ccncc2F)c(=O)c2cc(C(F)(F)F)cn12 [Compound 32F, N-(3-fluoro-4-pyridyl)-2-[4-isopropyl-1-oxo-7-(trifluoromethyl)pyrrolo[1,2-d][1,2,4]triazin-2-yl]acetamide]
 |  | 6.60 | < 5.00 | CC(C)c1nn(CC(=O)Nc2ccncc2F)c(=O)c2cc(I)cn12 [Compound 4F, N-(3-fluoro-4-pyridyl)-2-(7-iodo-4-isopropyl-1-oxo-pyrrolo[1,2-d][1,2,4]triazin-2-yl)acetamide]
 |  | 5.42 | < 5.00 | CC(C)Cc1cc2c(=O)n(CC(=O)Nc3ccncn3)nc(C(C)C)n2c1 [Compound 34F, 2-(7-isobutyl-4-isopropyl-1-oxo-pyrrolo[1,2-d][1,2,4]triazin-2-yl)-N-pyrimidin-4-yl-acetamide]
 |  | 5.95 | < 5.00 | C=Cc1cc2c(=O)n(CC(=O)Nc3ccncn3)nc(C(C)C)n2c1 [Compound 17F]
 |  | 5.78 | < 5.00 | CC(C)c1cc2c(=O)n(CC(=O)Nc3ccncn3)nc(N(C)CC3CC3)n2c1 [Compound 57F]
 |  | 5.01 | < 5.00 | CC(C)c1nn(CC(=O)Nc2ccncn2)c(=O)c2cc(CO)cn12 [Compound 12F]
 |  | 6.62 | < 5.00 | CC(C)c1nn(CC(=O)N[C@H]2C[C@@](C)(O)C2)c(=O)c2cc(I)cn12 [Compound 72F]

Reference: patent publication US20230183248A1, “PYRROLO[1,2-D][1,2,4]TRIAZINE-2-YL-ACETAMIDES AS INHIBITORS OF THE NLRP3 INFLAMMASOME PATHWAY” (JANSSEN PHARMACEUTICA NV, priority 2020, published 2023)
